Like-named read-outs stand apart in the source and are kept apart here.
Columns and labels:
α2-adrenoceptor = experiment: Competitive radioligand binding, [3H]clonidine, rat cerebral cortex; conditions: n.a. = no activity at 10–5 M
Method: The competitive radioligand-binding assay assessed affinity for α1- and α2-adrenoceptors. Experiments were carried out in the rat cerebral cortex. […] The membrane preparation and assay technique followed the previously reported protocol [10]. Radioactivity was measured using the MicroBeta2 scintillation counter (PerkinElmer, Kraków, Poland). The data was adjusted to match a single-site curve-fitting formula using Prism 8 (GraphPad Software, La Jolla, CA, USA), and the Ki values were estimated by means of the Cheng–Prusoff formula.

HepG2 cells = experiment: Glucose consumption (Amplex Red assay) in HepG2 cells; format: cell-based, human; conditions: for increase in glucose consumption (uptake): relative to vehicle-treated cells
Method: The HepG2 human hepatocellular carcinoma cell line (ATCC® HB-8065™) was cultured in DMEM supplemented with 10% FBS, 100 µg/mL streptomycin, and 100 IU/mL penicillin at 37 °C in 5% CO2. Cells were seeded in 96-well plates at a density of 10,000 cells/well and used for experiments 24 h after plating.
Stock solutions of test compounds were prepared at a concentration of 10 mM in dimethyl sulfoxide (DMSO). At least 1 mg of each substance was carefully measured and mixed with the right amount of DMSO. A series of dilutions were made in DMSO and then further diluted in phosphate-buffered saline before being introduced into the cell culture medium. Precipitation or opalescence was assessed prior to application.
The glucose uptake was measured with the Amplex® Red Glucose/Glucose Oxidase Assay Kit from Thermo Fisher Scientific, following the guidelines provided by the maker. Cell culture supernatants were collected and incubated with a reaction mix containing 100 μM Amplex® Red reagent, 0.2 U/mL horseradish peroxidase (HRP), and 1 U/mL glucose oxidase at room temperature for 30 min in the dark. Fluorescence was measured at 530 nm excitation and 590 nm emission using the POLARstar Omega plate reader (BMG Labtech).

C57BL/6 mice = experiment: Inhibition of gastric emptying (mouse model, phenol red); format: in vivo
Method: Fifty male C57BL/6 mice (22–27 g) were housed in standard cages while maintaining a 12:12-h light/dark cycle, with food and water available ad libitum. The experimental procedures were performed from 10:00 a.m. to 14:00 p.m.
The experiment was conducted according to Miyasaka et al. and Kotańska et al., with some minor modifications. Mice were subjected to a 20 h food deprivation and a 2 h water deprivation prior to testing. The animals received a vehicle (0.25 mL/mouse) alone or along with various compounds: JP-14 (10 mg/kg b. w.), RT (5 mg/kg body weight), metformin (100 mg/kg b. w.), or loperamide (reference compound; 10 mg/kg b. w.) via gastric gavage. Following a 45 min interval, phenol red (0.5 mL, 0.05% w/v) combined with glucose (1 g/kg body weight) was administered through the same route. Additionally, each group received an intraperitoneal injection of heparin (2500 U/mouse) 20 min prior to the collection of stomach contents. Seven mice treated with the vehicle were sacrificed immediately after the phenol red administration to serve as a standard control (representing 100% phenol red in the stomach at 0 min), establishing a baseline for maximum absorbance (100%). The leftover mice were sacrificed 30 min later. The stomachs were removed and homogenized using an OMNI homogenizer (OMNI International Company, Kennesaw, GA, USA), with 10 mL of 0.1 N NaOH. To 5 mL of homogenate, 0.5 mL of 20% w/v solution of trichloroacetic acid was incorporated to precipitate the proteins. Subsequently, the samples were centrifuged at 600× g for 15 min at a temperature of 20 °C, and 0.25 mL of supernatant was mixed with 1 mL of 0.5 N NaOH to achieve maximum color intensity. The concentration of phenol red was measured using spectrophotometry, with absorbance evaluated at a wavelength of 560 nm (MuLTISKAN.GO, Thermo Fisher Scientific Inc., Waltham, MA USA). For each mouse, the percentage of gastric emptying (GE %) was calculated using the following equation:(1) GE%=(Ac0−Ab)/(Ac0−Ac30)×100% where: Ac0 is the absorbance of the control gastric sample collected immediately after dye administration, and Ac30 is the absorbance of the control gastric sample collected 30 min after dye administration, i.e., Ac0–Ac30 = 100% gastric emptying.

3T3-L1 cells = experiment: Lipid accumulation (AdipoRed assay) in 3T3-L1 cells; format: cell-based, mouse; conditions: for lipid accumulation (intracellular lipid content), reduction: 10 µM, compared to vehicle-treated controls
Method: (§1) The 3T3-L1 mouse embryonic fibroblast cell line (ATCC CRL-11605) was cultured according to the standard protocol in Dulbecco’s Modified Eagle Medium (DMEM) supplemented with 10% bovine calf serum, 100 µg/mL streptomycin, and 100 IU/mL penicillin, at 37 °C in a humidified atmosphere containing 5% CO2. Cells were seeded at a density of 10,000 cells/well in collagen type I–coated (10 µg/mL) 96-well plates and allowed to attach for 24 h. Differentiation was initiated by replacing the medium with induction medium composed of DMEM, 0.5 mM 3-isobutyl-1-methylxanthine (IBMX), 1 µM dexamethasone, and 10% fetal bovine serum (FBS). After 48 h (differentiation day 2), the medium was replaced with DMEM supplemented with 10% FBS and 10 µg/mL human recombinant insulin. After an additional 24 h, the medium was replaced with DMEM supplemented with 10% bovine calf serum, 100 µg/mL streptomycin, and 100 IU/mL penicillin. The medium was refreshed every 24 h for 10 consecutive days to allow full differentiation into adipocytes.
On day 10 of differentiation, cells were treated with test compounds for 24 h. To investigate the involvement of the TAAR1 receptor, cells were pre-treated for 15 min with the selective TAAR1 antagonist RTI-7470-44 (40 nM) before compound exposure. After incubation, the culture medium was removed, and wells were gently rinsed with 200 µL PBS and refilled with 200 µL PBS. AdipoRed reagent (5 µL; Lonza) was added to each well, mixed, and incubated at room temperature for 10 min. Fluorescence was measured using the POLARstar Omega plate reader (excitation 485 nm, emission 535 nm).

[1] = test system: multiple species TAAR1 (mouse, rat, and human); design: method as in PMID 31848873; conditions: heterologous cell lines; cited from earlier work
HEPG2 cell line [2] = format: cell-based; conditions: human, 24 h
Method: (§2) Prior to investigating the biological activity and molecular characteristics of the test compounds in vitro, a comprehensive cytotoxicity screening was performed using HepG2 and 3T3-L1 cell lines. Two complementary assays were applied: one based on the quantification of adenylate kinase release as an indicator of cell membrane damage, and another relying on resazurin reduction to assess cellular metabolic activity. These complementary assays enable sensitive and reliable detection of cytotoxic effects across diverse cell types. This preliminary assessment was carried out to ensure that subsequent functional analyses would not be confounded by nonspecific cytotoxic effects.
(§3) The damage of cell membrane was evaluated with the ToxiLight BioAssay Kit from Lonza (Visp, Switzerland). This test is very sensitive and measures cell damage by looking at the release of adenylate kinase (AK). After 24 h of treatment, 5 µL of culture supernatant was transferred to a 384-well white plate (PerkinElmer, Singapore), followed by the addition of 20 µL of Adenylate Kinase Detection Reagent (AKDR). After a 10 min incubation at room temperature, luminescence was measured using the POLARstar Omega plate reader (BMG Labtech, Ortenberg, Germany). Results were expressed as a percentage relative to a lysed control (100% cell death).

3T3L1 cell line = format: cell-based; conditions: mouse, 24 h
Method: as §2, §3

human TAAR1 = biological target: T1, human TAAR1 (Homo sapiens, UniProt Q96RJ0); experiment: TAAR1 agonist activity, Hit Hunter cAMP assay; format: cell-based; conditions: cAMP accumulation; n.a. = no activity at 10–5 M; read-out: TAAR1 Ago EC50
T1 sequence (Q96RJ0 1-339): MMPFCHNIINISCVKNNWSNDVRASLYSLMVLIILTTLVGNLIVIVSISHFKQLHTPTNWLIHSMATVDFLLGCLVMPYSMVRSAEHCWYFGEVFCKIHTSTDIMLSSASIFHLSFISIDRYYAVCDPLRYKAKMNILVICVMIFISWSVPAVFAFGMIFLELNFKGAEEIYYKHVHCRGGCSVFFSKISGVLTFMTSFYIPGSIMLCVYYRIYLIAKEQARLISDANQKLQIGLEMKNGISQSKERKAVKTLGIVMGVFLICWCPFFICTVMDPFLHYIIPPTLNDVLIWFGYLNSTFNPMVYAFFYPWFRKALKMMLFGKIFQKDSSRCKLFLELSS
Method: The intrinsic activity of the TAAR1 receptor will be assessed according to the manufacturer’s protocol, using the Hit Hunter® cAMP assay by DiscoverX. This assay enables monitoring of GPCR activation in cells stably expressing TAAR1 by measuring changes in the level of the secondary messenger, cAMP. The cAMP Hunter cell lines were cultured from frozen stocks following standard procedures. Cells were plated in white-walled 384-well microplates at a total volume of 20 µL per well and incubated at 37 °C for the required period before analysis. To assess agonist activity, cells were exposed to the test compound to trigger a response. The culture medium was then removed and replaced with 15 µL of a 2:1 mixture of HBSS and 10 mM Hepes containing the cAMP XS+ antibody reagent. Sample stocks were diluted to prepare a 4× concentration in assay buffer. Subsequently, 5 µL of the 4× sample was added to each well, and the plates were incubated at either 37 °C or room temperature for 30 or 60 min. The vehicle was used at a concentration of 1%. After incubating the compounds for the required time, the assay signal was produced by adding 20 µL of the cAMP XS+ ED/CL lysis cocktail and incubating for one hour. This was followed by a three-hour incubation with 20 µL of the cAMP XS+EA reagent at room temperature. After signal development, the microplates were read using a PerkinElmer Envision Reader to detect chemiluminescence.

3T3-L1 adipocytes [3] = experiment: Phospholipidosis, HCS LipidTOX imaging in 3T3-L1 adipocytes; format: cell-based, mouse
Method: as §1
(§4) Lipid accumulation and phospholipidosis were evaluated using the HCS LipidTOX Phospholipidosis and Steatosis Detection Kit (Thermo Fisher Scientific). Cells were cultured in black, clear-bottom 96-well plates and treated as described. Next, cells were fixed with 4% paraformaldehyde (15 min), washed with PBS, and stained with LipidTOX Green Neutral Lipid Stain (for steatosis) and LipidTOX Red Phospholipidosis Detection Reagent, prepared according to the manufacturer’s instructions. Nuclei were counterstained with Hoechst 33342 (2 µg/mL). Image acquisition and quantitative analysis were performed using High Content Screening (HCS) technology on the ImageXpress XLS system (Molecular Devices). Lipid droplet and phospholipid content were quantified using automated image analysis pipelines.

HEPG2 cell line [4] = experiment: Cell viability assay (PrestoBlue, metabolic function), HepG2; format: cell-based, human; conditions: 24 h, mean
Method: as §2
(§5) Cell viability was measured using PrestoBlue reagent (Thermo Fisher Scientific, Waltham, MA, USA), following the manufacturer’s instructions. After 24 h of compound treatment, PrestoBlue reagent was added to each well at 10% of the remaining medium volume. The plate was incubated at 37 °C for 15 min, and fluorescence was measured using the POLARstar Omega plate reader (excitation 530 nm, emission 580 nm). Results were expressed as a percentage of viable cells relative to the DMSO-treated control.

3T3-L1 cell line = experiment: Cell viability assay (PrestoBlue, metabolic function), 3T3-L1; format: cell-based, mouse; conditions: 24 h, mean
Method: as §2, §5

3T3-L1 adipocytes [5] = experiment: Steatosis, HCS LipidTOX imaging in 3T3-L1 adipocytes; format: cell-based, mouse
Method: as §1, §4

## N#Cc1cc(/C=N/NC(=N)N)ccc1F
α2-adrenoceptor
  Ki: 996 nM

## COc1ccc(/C=N/NC(=N)N)cc1 [4 (JP06)]
α2-adrenoceptor
  Ki: 1070 ± 78 nM

## CN(C)C(=N)N=C(N)N [Metformin, metformin]
HepG2 cells; 100 µM
  increase in glucose consumption (uptake): 36%
C57BL/6 mice; 100 mg/kg b.w.
  inhibitory effect on gastric emptying: about 30%

## CN(CCOc1ccc(CC2SC(=O)NC2=O)cc1)c1ccccn1 (stereo not drawn) [Rosiglitazone, rosiglitazone]
3T3-L1 cells; 100 µM, relative to vehicle-treated cells
  lipid accumulation, reduction: 90%

## CN(C)C(=O)C(CCN1CCC(O)(c2ccc(Cl)cc2)CC1)(c1ccccc1)c1ccccc1 [loperamide]
C57BL/6 mice; intragastric, 10 mg/kg b.w.
  percentage inhibition of gastric emptying: about 55%

## Clc1cccc(N2CCNCC2)c1 [mCPP, meta-chlorophenylpiperazine]
HepG2 cells; 10 µM
  increase in glucose consumption (uptake): no significant changes
3T3-L1 cells
  lipid accumulation (intracellular lipid content), reduction: significantly increased lipid accumulation

## NCC(O)c1ccc(O)cc1 (stereo not drawn) [para-octopamine]
[1]
  EC50: 2000 to 20000 nM

## NCCc1c[nH]c2ccccc12 [tryptamine]
[1]
  EC50: 400 to 21000 nM

## NCCc1ccc(O)cc1 [tyramine]
HepG2 cells; 10 µM + RTI-7470-44 (40 nM)
  glucose-stimulating effect under TAAR1 blockade: substantially attenuated
HepG2 cells; 10 µM
  increase in glucose consumption (uptake): 32%
HEPG2 cell line [2]; 0.1 μM
  membrane integrity, percentage relative to control (death cells): 8%
HEPG2 cell line [2]; 1 μM
  membrane integrity, percentage relative to control (death cells): 7%
HEPG2 cell line [2]; 10 μM
  membrane integrity, percentage relative to control (death cells): 7%
HEPG2 cell line [2]; 50 μM
  membrane integrity, percentage relative to control (death cells): 8%
HEPG2 cell line [2]; 100 μM
  membrane integrity, percentage relative to control (death cells): 11%
3T3L1 cell line; 0.1 μM
  membrane integrity, percentage relative to control (death cells): 6%
3T3L1 cell line; 1 μM
  membrane integrity, percentage relative to control (death cells): 6%
3T3L1 cell line; 10 μM
  membrane integrity, percentage relative to control (death cells): 6%
3T3L1 cell line; 50 μM
  membrane integrity, percentage relative to control (death cells): 6%
3T3L1 cell line; 100 μM
  membrane integrity, percentage relative to control (death cells): 8%
Human TAAR1
  EC50: 5870 ± 470 nM
3T3-L1 adipocytes [3]; 10 µM + RTI-7470-44 (40 nM)
  effect on phospholipidosis under TAAR1 blockade: reversed
3T3-L1 adipocytes [3]; 10 µM, vs vehicle
  phospholipidosis (phospholipid accumulation): significantly reduced
HEPG2 cell line [4]; Table S4, 0.1 μM
  cellular metabolic function, percentage relative to control (live cells): 101%
HEPG2 cell line [4]; Table S4, 1 μM
  cellular metabolic function, percentage relative to control (live cells): 98%
HEPG2 cell line [4]; Table S4, 10 μM
  cellular metabolic function, percentage relative to control (live cells): 97%
HEPG2 cell line [4]; Table S4, 50 μM
  cellular metabolic function, percentage relative to control (live cells): 89%
HEPG2 cell line [4]; Table S4, 100 μM
  cellular metabolic function, percentage relative to control (live cells): 80%
3T3-L1 cells; 10 µM + RTI-7470-44 (40 nM)
  lipid-lowering effect under TAAR1 blockade: completely abolished
3T3-L1 cells
  lipid accumulation (intracellular lipid content), reduction: 33%
3T3-L1 cell line; Table S5, 0.1 μM
  cellular metabolic function, percentage relative to control (live cells): 95%
3T3-L1 cell line; Table S5, 1 μM
  cellular metabolic function, percentage relative to control (live cells): 90%
3T3-L1 cell line; Table S5, 10 μM
  cellular metabolic function, percentage relative to control (live cells): 88%
3T3-L1 cell line; Table S5, 50 μM
  cellular metabolic function, percentage relative to control (live cells): 67%
3T3-L1 cell line; Table S5, 100 μM
  cellular metabolic function, percentage relative to control (live cells): 55%
3T3-L1 adipocytes [5]; 10 µM + RTI-7470-44 (40 nM)
  effect on steatosis under TAAR1 blockade: abolished
3T3-L1 adipocytes [5]; 10 µM, vs vehicle
  steatosis (neutral lipid accumulation): statistically significant decrease

— article PMC12563652 (International Journal of Molecular Sciences, 2025)
